{
  "source": "patent US10267737B2",
  "about": "“Near-infrared fluorescent probe for detecting alkaline phosphatase and manufacturing method thereof” (KOREA RESEARCH INSTITUTE OF BIOSCIENCE AND BIOTECHNOLOGY, priority 2016, dated 2019)",
  "key": {"ALP [1]": {"tested_on": "ALP", "test": "Evaluation of sensitivity for ALP with ALP inhibitor p-BTO pre-treatment", "type": "biochemical", "details": "for sensitivity for ALP: with and without p-BTO pre-treatment", "description": "After pre-treating with the ALP inhibitor p-BTO (p-bromotetramisole oxalate) at 1-2.5 mM, the fluorescent probe was mixed with ALP."}, "ALP [2]": {"tested_on": "ALP", "test": "Fluorescence response depending on ALP concentration", "type": "biochemical", "details": "for new absorption peak in the presence of ALP: probe 5 μM, ALP 0.1 UmL^−1, Tris-HCl 10 mM, pH 7.4; for fluorescence due to dephosphorylation of ALP: λex=685 nm", "description": "Reactivity depending on ALP concentration was evaluated for the NIR-Phos-1 and NIR-Phos-2 fluorescent probes. After dissolving the fluorescent probe (5 μM) in a Tri-HCl buffer (10 mM, pH 7.4), the fluorescence spectrum occurring as a result of reaction with ALP (0.1 UmL^−1) was investigated.\nFrom FIG. 5B and FIG. 5D, it can be seen that fluorescence spectra are changed variously by adding a Tris-HCl buffer (10 mM, pH 7.4) to ALP (10^−5 to 1.0 UmL^−1) of various concentrations."}, "ALP [3]": {"tested_on": "ALP", "test": "Evaluation of selective ALP detection", "type": "biochemical", "details": "versus BSA, trypsin, lysozyme, AcHE, GOx, uricase, thrombin", "excerpt": "ALP, BSA, trypsin, lysozyme, acetylcholinesterase (AcHE), glucose oxidase (GOx), uricase and thrombin were used for the evaluation."}, "[4]": {"test": "Fluorescence stability (photostability) test", "type": "physicochemical", "details": "685 nm light, 150-W xenon lamp, 1 hour, Tris-HCl 10 mM, pH 7.4", "description": "The photostability of a fluorescent probe is important for in-vitro and in-vivo fluorescence detection. Therefore, the photostability of the NIR-Phos-1 and NIR-Phos-2 fluorescent probes was evaluated by irradiating light at 685 nm from a 150-W xenon lamp for 1 hour in a Tris-HCl buffer (10 mM, pH 7.4) and measuring the change in fluorescence intensity."}, "[5]": {"test": "Affinity for calcium salts, NIR fluorescence imaging", "type": "binding", "details": "PBS buffer", "description": "The affinity of the NIR-Phos-1 and NIR-Phos-2 fluorescent probes for a calcium salt-containing scaffold was evaluated. As the scaffold, calcium carbonate (CC), calcium phosphate (CP), hydroxyapatite (HA), calcium perchlorate (CPC), calcium chloride (CCH) and calcium nitrate (CN) were used. The fluorescent probe and the scaffold were immersed in a PBS buffer and subjected to NIR fluorescence imaging."}, "[6]": {"test": "Affinity for scaffold, light absorption of probe solution after adsorption", "type": "binding", "details": "CDHA scaffold"}, "[7]": {"test": "Affinity for scaffold, light absorption of probe solution after adsorption", "type": "binding", "details": "CDHA/DCPD scaffold"}},
  "data": [
    {"smiles": "Brc1ccc(C2CN3CCSC3=N2)cc1.O=C(O)C(=O)O", "note": "(stereo not drawn) [p-BTO, p-bromotetramisole oxalate, reference compound]", "values": [
      {"measurement": "hydrolysis of the fluorescent probe and ALP", "setting": "ALP [1]; p-BTO 1-2.5 mM pre-treatment, fluorescence intensity decreased gradually as p-BTO concentration increased", "result": "inhibited"}
    ]},
    {"smiles": "CC[N+]1=C(/C=C/C2=C3Oc4cc(OCc5ccc(OP(=O)(O)O)cc5)ccc4C=C3CCC2)C(C)(C)c2cc(S(=O)(=O)[O-])ccc21", "note": "[NIR-Phos-1, (E)-1-ethyl-3,3-dimethyl-2-(2-(6-((4-(phosphonooxy)benzyl)oxy)-2,3-dihydro-1H-xanthen-4-yl)vinyl)-3H-indol-1-ium-5-sulfonate]", "values": [
      {"measurement": "sensitivity for ALP", "setting": "ALP [1]", "result": "good sensitivity"},
      {"measurement": "new absorption peak in the presence of ALP", "setting": "ALP [2]", "result": 710, "unit": "nm"},
      {"measurement": "fluorescence due to dephosphorylation of ALP", "setting": "ALP [2]", "result": 710, "unit": "nm"},
      {"measurement": "selective detection of ALP", "setting": "ALP [3]", "result": "selectively detect ALP only"},
      {"measurement": "photostability (change in fluorescence intensity)", "setting": "[4]", "result": "superior photostability"},
      {"measurement": "affinity for hydroxyapatite (HA) particles compared to calcium salts CC, CP, CPC, CCH, CN", "setting": "[5]", "result": "higher affinity"},
      {"measurement": "decrease of light absorption by the probe solution after adsorption", "setting": "[6]", "result": 29.4, "unit": "%"},
      {"measurement": "decrease of light absorption by the probe solution after adsorption", "setting": "[7]", "result": 3.8, "unit": "%"}
    ]},
    {"smiles": "CC[N+]1=C(/C=C/C2=C3Oc4cc(OP(=O)(O)O)ccc4C=C3CCC2)C(C)(C)c2cc(S(=O)(=O)[O-])ccc21", "note": "[NIR-Phos-2, (E)-1-ethyl-3,3-dimethyl-2-(2-(6-(phosphonooxy)-2,3-dihydro-1H-xanthen-4-yl)vinyl)-3H-indol-1-ium-5-sulfonate]", "values": [
      {"measurement": "sensitivity for ALP", "setting": "ALP [1]", "result": "good sensitivity"},
      {"measurement": "new absorption peak in the presence of ALP", "setting": "ALP [2]", "result": 710, "unit": "nm"},
      {"measurement": "fluorescence due to dephosphorylation of ALP", "setting": "ALP [2]", "result": 710, "unit": "nm"},
      {"measurement": "selective detection of ALP", "setting": "ALP [3]", "result": "selectively detect ALP only"},
      {"measurement": "photostability (change in fluorescence intensity)", "setting": "[4]", "result": "superior photostability"},
      {"measurement": "affinity for hydroxyapatite (HA) particles compared to calcium salts CC, CP, CPC, CCH, CN", "setting": "[5]", "result": "higher affinity"}
    ]}
  ]
}
